The structures appear in SMILES notation. Positions of bridges follow the written chain, without caps; N, C: chain ends. Non-standard residues stand in square brackets, D forms with d. Residues, ends and D or L forms follow the SMILES beside them. Abu = CC[C@H](N)C(=O)O

This test in a line: Inhibition of C3b activation relative to compstatin.

`CC[C@H](C)[C@H](NC(C)=O)C(=O)N[C@H]1CSSC[C@@H](C(=O)N[C@H](C(N)=O)[C@@H](C)O)NC(=O)[C@H](CCCNC(=N)N)NC(=O)[C@H](Cc2cnc[nH]2)NC(=O)[C@H](C)NC(=O)CNC(=O)[C@H](Cc2c[nH]c3ccccc23)NC(=O)[C@H](CC(=O)O)NC(=O)[C@H](CCC(N)=O)NC(=O)[C@H](C(C)C)NC(=O)[C@H](C(C)C)NC1=O` (Ac-ICVVQDWGAHRCT-NH2; disulfide 2-12) displayed a logIC50 of 0.617.

`CC[C@H](C)[C@H](NC(C)=O)C(=O)N[C@H]1CSSC[C@@H](C(=O)N[C@H](C(=O)O)[C@@H](C)O)NC(=O)[C@H](CCCNC(=N)N)NC(=O)[C@H](Cc2cnc[nH]2)NC(=O)[C@H](C)NC(=O)CNC(=O)[C@H](Cc2c[nH]c3ccccc23)NC(=O)[C@H](CC(=O)O)NC(=O)[C@H](CCC(N)=O)NC(=O)[C@H](Cc2ccc(C(=O)c3ccccc3)cc2)NC(=O)[C@H](C(C)C)NC1=O` gave a logIC50 of 1.69.

In the case of `CC[C@H](C)[C@H](NC(C)=O)C(=O)N[C@H]1CSSC[C@@H](C(=O)N[C@H](C(N)=O)[C@@H](C)O)NC(=O)[C@H](CCCNC(=N)N)NC(=O)[C@H](Cc2cnc[nH]2)NC(=O)[C@H](C)NC(=O)CNC(=O)[C@H](Cc2c[nH]c3ccccc23)NC(=O)[C@H](CC(=O)O)NC(=O)[C@H](CCC(N)=O)NC(=O)[C@H](Cc2c[nH]c3ccccc23)NC(=O)[C@H](C(C)C)NC1=O`, the logIC50 is 1.65.

For the compound `CC[C@H](C)[C@H](NC(C)=O)C(=O)N[C@H]1CSSC[C@@H](C(=O)N[C@H](C(N)=O)[C@@H](C)O)NC(=O)[C@H](CCCNC(=N)N)NC(=O)[C@H](Cc2cnc[nH]2)NC(=O)[C@H](Cc2cnc[nH]2)NC(=O)CNC(=O)[C@H](Cc2c[nH]c3ccccc23)NC(=O)[C@H](CC(=O)O)NC(=O)[C@H](CCC(N)=O)NC(=O)[C@H](CO)NC(=O)[C@H](C(C)C)NC1=O` (Ac-ICVSQDWGHHRCT-NH2; disulfide 2-12), the logIC50 was 0.022.

On to `CC[C@H](C)[C@H](NC(C)=O)C(=O)N[C@H]1CSSC[C@@H](C(=O)N[C@H](C(N)=O)[C@@H](C)O)NC(=O)[C@H](CCCNC(=N)N)NC(=O)[C@H](Cc2cnc[nH]2)NC(=O)[C@H](C)NC(=O)CNC(=O)[C@H](Cc2c[nH]c3ccc(O)cc23)NC(=O)[C@H](CC(=O)O)NC(=O)[C@H](CCC(N)=O)NC(=O)[C@H](Cc2c[nH]c3ccc(O)cc23)NC(=O)[C@H](C(C)C)NC1=O`, for which the logIC50 was determined as 0.211.

Take `CC[C@H](C)[C@H](NC(C)=O)C(=O)N[C@H]1CSSC[C@@H](C(=O)N[C@H](C(=O)O)[C@@H](C)O)NC(=O)[C@H](CCCNC(=N)N)NC(=O)[C@H](Cc2cnc[nH]2)NC(=O)[C@H](C)NC(=O)CNC(=O)[C@H](Cc2c[nH]c3ccccc23)NC(=O)[C@H](CC(=O)O)NC(=O)[C@H](CCC(N)=O)NC(=O)[C@@H](Cc2csc3ccccc23)NC(=O)[C@H](C(C)C)NC1=O`: the logIC50 came out at 1.83.

As to `CC[C@H](C)[C@H](NC(C)=O)C(=O)N[C@H]1CSSC[C@@H](C(=O)N[C@H](C(N)=O)[C@H](C)O)NC(=O)[C@H](CCCNC(=N)N)NC(=O)[C@H](Cc2cnc[nH]2)NC(=O)[C@H](C)NC(=O)CNC(=O)[C@H](Cc2c[nH]c3ccccc23)NC(=O)[C@H](CC(=O)O)NC(=O)[C@H](CCC(N)=O)NC(=O)[C@H](Cc2c[nH]c3ccc(F)cc23)NC(=O)[C@H](C(C)C)NC1=O`, the logIC50 was found to be 1.49.

`CC[C@H](C)[C@H](NC(C)=O)C(=O)N[C@H]1CSSC[C@@H](C(=O)N[C@H](C(N)=O)[C@@H](C)O)NC(=O)[C@H](CCCNC(=N)N)NC(=O)[C@H](Cc2cnc[nH]2)NC(=O)[C@H](C)NC(=O)CNC(=O)[C@H](Cc2c[nH]c3ccccc23)NC(=O)[C@H](CC(=O)O)NC(=O)[C@H](CCC(N)=O)NC(=O)[C@H](Cc2ccc(O)cc2)NC(=O)[C@H](C(C)C)NC1=O`: the logIC50 is 1.17.

`CC[C@H](C)[C@H](NC(C)=O)C(=O)N[C@H]1CSSC[C@@H](C(=O)N[C@H](C(=O)O)[C@@H](C)O)NC(=O)[C@H](CCCNC(=N)N)NC(=O)[C@H](Cc2cnc[nH]2)NC(=O)[C@H](C)NC(=O)CNC(=O)[C@H](Cc2c[nH]c3ccccc23)NC(=O)[C@H](CC(=O)O)NC(=O)[C@H](CCC(N)=O)NC(=O)[C@H](Cc2cccc3ccccc23)NC(=O)[C@H](C(C)C)NC1=O`: the logIC50 was determined as 1.47.

Regarding `CC[C@@H]1NC(=O)CNC(=O)[C@H](Cc2c[nH]c3ccccc23)NC(=O)[C@H](CC(=O)O)NC(=O)[C@H](CCC(N)=O)NC(=O)[C@H](Cc2c[nH]c3ccccc23)NC(=O)[C@H](C(C)C)NC(=O)[C@@H](NC(=O)[C@@H](NC(C)=O)[C@@H](C)CC)CSSC[C@@H](C(=O)N[C@H](C(N)=O)[C@@H](C)O)NC(=O)[C@H](CCCNC(=N)N)NC(=O)[C@H](Cc2cnc[nH]2)NC1=O` (Ac-ICVWQDWG[Abu]HRCT-NH2; disulfide 2-12), the logIC50 worked out at 1.55.

`CC[C@H](C)[C@H](N)C(=O)N[C@H]1CSSC[C@@H](C(=O)N[C@H](C(=O)O)[C@@H](C)O)NC(=O)[C@H](CCCNC(=N)N)NC(=O)[C@H](Cc2cnc[nH]2)NC(=O)[C@H](C)NC(=O)CNC(=O)[C@H](Cc2c[nH]c3ccccc23)NC(=O)[C@H](CC(=O)O)NC(=O)[C@H](CCC(N)=O)NC(=O)[C@H](C2Cc3ccccc3C2)NC(=O)[C@H](C(C)C)NC1=O` yielded a logIC50 of 1.55.

The compound `CC[C@H](C)[C@H](NC(C)=O)C(=O)N[C@H]1CSSC[C@@H](C(=O)N[C@H](C(N)=O)[C@H](C)O)NC(=O)[C@H](CCCNC(=N)N)NC(=O)[C@H](Cc2cnc[nH]2)NC(=O)[C@H](Cc2cnc[nH]2)NC(=O)CNC(=O)[C@H](Cc2c[nH]c3ccccc23)NC(=O)[C@H](CC(=O)O)NC(=O)[C@H](CCC(N)=O)NC(=O)[C@H](Cc2c[nH]c3ccccc23)NC(=O)[C@H](C(C)C)NC1=O` yielded a logIC50 of 1.39.

For `CC(C)[C@@H]1NC(=O)[C@H](C(C)C)NC(=O)[C@@H](N)CSSC[C@@H](C(N)=O)NC(=O)[C@H](CCCNC(=N)N)NC(=O)[C@H](Cc2cnc[nH]2)NC(=O)[C@H](Cc2cnc[nH]2)NC(=O)CNC(=O)[C@H](Cc2c[nH]c3ccccc23)NC(=O)[C@H](CC(=O)O)NC(=O)[C@H](CCC(N)=O)NC1=O` (H-CVVQDWGHHRC-NH2; disulfide 1-11), the logIC50 is -0.439.

Regarding `CC(C)[C@@H]1NC(=O)[C@H](C(C)C)NC(=O)[C@@H](N)CSSC[C@@H](C(=O)N[C@H](C(N)=O)[C@@H](C)O)NC(=O)[C@H](CCCNC(=N)N)NC(=O)[C@H](Cc2cnc[nH]2)NC(=O)[C@H](Cc2cnc[nH]2)NC(=O)CNC(=O)[C@H](Cc2c[nH]c3ccccc23)NC(=O)[C@H](CC(=O)O)NC(=O)[C@H](CCC(N)=O)NC1=O` (H-CVVQDWGHHRCT-NH2; disulfide 1-11), the logIC50 was -0.319.

As for `CC(C)[C@@H]1NC(=O)[C@H](C(C)C)NC(=O)[C@@H](N)CSSC[C@@H](C(=O)O)NC(=O)[C@H](CCCNC(=N)N)NC(=O)[C@H](C)NC(=O)[C@H](Cc2cnc[nH]2)NC(=O)CNC(=O)[C@H](Cc2c[nH]c3ccccc23)NC(=O)[C@H](CC(=O)O)NC(=O)[C@H](CCC(N)=O)NC1=O` (H-CVVQDWGHARC-OH; disulfide 1-11), the logIC50 was -0.79.

`CC[C@H](C)[C@H](NC(=O)[C@@H]1CSSC[C@H](NC(=O)[C@@H](NC(C)=O)[C@@H](C)CC)C(=O)N[C@@H](C(C)C)C(=O)N[C@@H](C)C(=O)N[C@@H](CCC(N)=O)C(=O)N[C@@H](CC(=O)O)C(=O)N[C@@H](Cc2c[nH]c3ccccc23)C(=O)NCC(=O)N[C@@H](C)C(=O)N[C@@H](Cc2cnc[nH]2)C(=O)N[C@@H](CCCNC(=N)N)C(=O)N1)C(N)=O` (Ac-ICVAQDWGAHRCI-NH2; disulfide 2-12) registered a logIC50 of 0.477.

`CC[C@H](C)[C@H](NC(C)=O)C(=O)N[C@H]1CSSC[C@@H](C(=O)N[C@H](C(N)=O)[C@@H](C)O)NC(=O)[C@H](CCCNC(=N)N)NC(=O)[C@H](Cc2cnc[nH]2)NC(=O)[C@H](Cc2cnc[nH]2)NC(=O)CNC(=O)[C@H](Cc2c[nH]c3ccccc23)NC(=O)[C@H](CC(=O)O)NC(=O)[C@H](CCC(N)=O)NC(=O)[C@H](C(C)C)NC(=O)[C@H](C(C)C)NC1=O` registered a logIC50 of 0.477.

Compound `CC[C@H](C)[C@H](NC(C)=O)C(=O)N[C@H]1CSSC[C@@H](C(=O)N[C@H](C(N)=O)[C@@H](C)O)NC(=O)[C@H](C)NC(=O)[C@H](Cc2cnc[nH]2)NC(=O)[C@H](C)NC(=O)CNC(=O)[C@H](Cc2c[nH]c3ccccc23)NC(=O)[C@H](CC(=O)O)NC(=O)[C@H](CCC(N)=O)NC(=O)[C@H](C(C)C)NC(=O)[C@H](C(C)C)NC1=O` (Ac-ICVVQDWGAHACT-NH2; disulfide 2-12) showed a logIC50 of 0.084.

As to `CC[C@H](C)[C@H](N)C(=O)N[C@H]1CSSC[C@@H](C(=O)N[C@H](C(=O)O)[C@@H](C)O)NC(=O)[C@H](CCCNC(=N)N)NC(=O)[C@H](Cc2cnc[nH]2)NC(=O)[C@H](C)NC(=O)CNC(=O)[C@H](Cc2c[nH]c3ccccc23)NC(=O)[C@H](CC(=O)O)NC(=O)[C@H](CCC(N)=O)NC(=O)[C@H](Cc2ccc3ccccc3c2)NC(=O)[C@H](C(C)C)NC1=O`, the logIC50 was 1.58.

On to `CC[C@H](C)[C@H](NC(C)=O)C(=O)N[C@H]1CSSC[C@@H](C(=O)N[C@H](C(N)=O)[C@@H](C)O)NC(=O)[C@H](CCCNC(=N)N)NC(=O)[C@H](Cc2cnc[nH]2)NC(=O)[C@H](Cc2cnc[nH]2)NC(=O)CNC(=O)[C@H](Cc2c[nH]c3ccccc23)NC(=O)[C@H](CC(=O)O)NC(=O)[C@H](CCC(N)=O)NC(=O)[C@H](C(C)C)NC(=O)[C@H](CC(C)C)NC1=O` (Ac-ICLVQDWGHHRCT-NH2; disulfide 2-12), for which the logIC50 came out at 0.079.

Consider `CC[C@H](C)[C@H](NC(C)=O)C(=O)N[C@H]1CSSC[C@@H](C(=O)N[C@H](C(N)=O)[C@@H](C)O)NC(=O)[C@H](CCCNC(=N)N)NC(=O)[C@H](Cc2cnc[nH]2)NC(=O)[C@H](C)NC(=O)CNC(=O)[C@H](Cc2c[nH]c3ccccc23)NC(=O)[C@H](CC(=O)O)NC(=O)[C@H](CCC(N)=O)NC(=O)[C@H](Cc2cn(C)c3ccccc23)NC(=O)[C@H](C(C)C)NC1=O`, for which the logIC50 came to 2.42.

In turn, `CC[C@H](C)[C@H](N)C(=O)N[C@H]1CSSC[C@@H](C(=O)N[C@H](C(N)=O)[C@@H](C)O)NC(=O)[C@H](CCCNC(=N)N)NC(=O)[C@H](Cc2cnc[nH]2)NC(=O)[C@H](Cc2cnc[nH]2)NC(=O)CNC(=O)[C@H](Cc2c[nH]c3ccccc23)NC(=O)[C@H](CC(=O)O)NC(=O)[C@H](CCC(N)=O)NC(=O)[C@H](C(C)C)NC(=O)[C@H](C(C)C)NC1=O` showed a logIC50 of 0.

These data come from ChEMBL document CHEMBL1140602, “A simple, yet highly accurate, QSAR model captures the complement inhibitory activity of compstatin” (Bioorg Med Chem, 2007).
